According to ChEMBL document CHEMBL3044669, “Molecular modeling, structure activity relationship and immunomodulatory properties of some lupeol derivatives” (Med Chem Res, 2013):
Values after ≈ are worked out from the molar mass of the structure shown.

Experiments:
[1] = test system: Neutrophil; test: Immunomodulatory activity in neutrophils assessed as decrease in oxidative burst after 30 min by luminol-enhanced chemiluminescence assay; type: functional, cell-based; settings: for IC50: 0.5 h
[2] = test system: PBL; test: Stimulation of PHA-induced Homo sapiens (human) peripheral blood lymphocytes proliferation assessed as increase in [3H]-thymidine incorporation at 50 ug/ml after 72 hr by beta-scintillation counting analysis relative to control; type: functional
[3] = test system: Neutrophil; test: Immunomodulatory activity in neutrophils assessed as decrease in oxidative burst at 50 ug/mL after 30 min by luminol-enhanced chemiluminescence assay relative to control; type: functional; set-up: scale not given: the % may be the effect or the level left
[4] = test system: PBL; test: Antiproliferative activity against PHA-induced Homo sapiens (human) peripheral blood lymphocytes assessed as inhibition of [3H]-thymidine incorporation at 50 ug/ml after 72 hr by beta-scintillation counting analysis relative to control; type: functional
[5] = test system: PBL; test: Antiproliferative activity against PHA-induced Homo sapiens (human) peripheral blood lymphocytes assessed as inhibition of [3H]-thymidine incorporation after 72 hr by beta-scintillation counting analysis; type: functional, cell-based

SMILES	Activity [1]	IC50 [1] [µg/mL]	Activity [2] [%]	Activity [3] [%]	inhibition at 50 µg/mL [4] [%]	IC50 [5] [µg/mL]	inhibition [5]
C=C(C)[C@@H]1CC[C@]2(C(=O)O)CC[C@]3(C)[C@H](CC[C@@H]4[C@@]5(C)CC[C@H](O)C(C)(C)[C@@H]5CC[C@]43C)[C@@H]12 [BETULINIC ACID]	Dose-dependent effect	11.1	38.2				
C=C(C)[C@@H]1CC[C@]2(C)CC[C@]3(C)[C@H](CC[C@@H]4[C@@]5(C)CC[C@H](OC(C)=O)C(C)(C)[C@@H]5CC[C@]43C)[C@@H]12 [LUPENYL ACETATE]				41.12	38.9		
C=C(C)[C@@H]1CC[C@]2(C(=O)OCC)CC[C@]3(C)[C@H](CC[C@@H]4[C@@]5(C)CC[C@H](O)C(C)(C)[C@@H]5CC[C@]43C)[C@@H]12 [ETHYL BETULINATE]		3.85				12.9 (≈ 26.6 µM)	
C=C(C)[C@@H]1CC[C@]2(C)CC[C@]3(C)[C@H](CC[C@@H]4[C@@]5(C)CC[C@H](O)C(C)(C)[C@@H]5CC[C@]43C)[C@@H]12 [LUPEOL]	Dose-dependent effect	11.3				13.2 (≈ 30.8 µM)	Dose-dependent effect
